SMILES strings stand for the structures.

As usually defined, the EC50 is the midpoint of the concentration-response curve. One may read the Emax as the maximal effect, on the per cent scale that the assay sets.

For the experiment, the target named is T1, human M2 receptor (Homo sapiens, UniProt P08172).
T1 construct: expressed in transfected cells; host or cells: CHO-DUKX (CHO-DUKX-M2-GIRK)
T1 sequence (P08172 1-466): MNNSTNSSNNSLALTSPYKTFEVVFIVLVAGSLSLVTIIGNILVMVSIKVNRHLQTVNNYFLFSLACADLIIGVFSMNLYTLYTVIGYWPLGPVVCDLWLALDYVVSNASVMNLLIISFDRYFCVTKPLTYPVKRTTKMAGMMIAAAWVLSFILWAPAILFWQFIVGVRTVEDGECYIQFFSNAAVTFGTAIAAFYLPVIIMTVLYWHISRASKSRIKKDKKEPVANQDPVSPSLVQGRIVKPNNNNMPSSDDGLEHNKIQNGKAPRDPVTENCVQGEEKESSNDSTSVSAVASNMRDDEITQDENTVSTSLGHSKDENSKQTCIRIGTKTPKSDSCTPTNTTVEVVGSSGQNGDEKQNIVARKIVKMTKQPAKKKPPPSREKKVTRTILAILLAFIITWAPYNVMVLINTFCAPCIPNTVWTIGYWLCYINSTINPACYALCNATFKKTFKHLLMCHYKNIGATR
In words: Functional M2-GIRK1/4 activation test: allosteric potency (EC50) and efficiency at EC20 acetylcholine. Type of experiment: cell-based. The conditions noted are these: CHO-DUKX-M2-GIRK cells; for EC50: voltage-sensitive dye, acetylcholine at EC20, in some cases mean of two or more determinations; for Emax / Efficiency: boosting of the acetylcholine effect at EC20 acetylcholine concentration. The text has this:
The binding of orthosteric agonists (endogenous ligand: acetylcholine) to the M2 receptor leads to receptor activation or a change in conformation of the receptor in the manner of a shift in equilibrium in favour of the active receptor conformation.
The agonist-induced change in conformation of the M2 receptor results in a Gαi protein activation. […] Under physiological conditions, the result is then a selective efflux of potassium from the cell along the electrochemical gradient. […] The extent of hyperpolarization can therefore be regarded as a measure of the activation of the M2 receptor.
The test cell used is a recombinant CHO-DUKX cell line which has been stably transfected with cDNA coding for the human M2 receptor and with cDNA coding for both GIRK1/4 subunits (CHO-DUKX-M2-GIRK). The transmembrane potential, or the relative changes in the transmembrane potential as a function of substance addition or M2 activation, is determined by means of a voltage-sensitive dye (FLIPR Membrane Potential Assay Kit Blue, Molecular Devices #R8034) and the measurement of cell fluorescence using a proprietary fluorescence imaging instrument.
The sowing medium consisted of MEM alpha medium (supplemented with 5% PCS, 2% Glutamax, no genticin).
For the particular measurement, the medium was removed and the cells were laden with the volt-age-sensitive dye for at least 6 min at room temperature (30 μl of loading buffer per 384-well). This was followed, in a first measurement, by the determination of the fluorescence for the resting transmembrane potential for a period of 5 sec. Thereafter, 10 μl in each case of the test substances diluted in loading buffer were added, followed by a second measurement to determine the transmembrane potential for a period of 50 sec in 1 sec increments. Finally, the cells were admixed with 10 μl of agonist solution (acetylcholine dissolved in loading buffer). Acetylcholine was used at the concentration corresponding to the EC20, which had been determined in a preliminary test. The M2-mediated GIRK1/4 activation or hyperpolarization was then monitored in a third measurement over a period of 60 sec. The EC50 value (degree of allosteric potency of test compound) and the efficiency (measure of the boosting of the acetylcholine effect at an EC20 acetylcholine concentration) were determined with the aid of a 4-parameter logistic function (Hill function).

Take `CC1(O)CN(c2nc3c(cc2F)c(=O)c(C(=O)NC(C2CC2)C2CC2)cn3-c2ncc(F)cc2F)C1` [Example 56, N-(Dicyclopropylmethyl)-1-(3,5-difluoropyridin-2-yl)-6-fluoro-7-(3-hydroxy-3-methylazetidin-1-yl)-4-oxo-1,4-dihydro-1,8-naphthyridine-3-carboxamide]: the EC50 was 35 nM and the Emax came to 100%.

Compound `O=C(NC(C(F)(F)F)C(F)(F)F)c1cn(-c2ncc(F)cc2F)c2nc(N3CCC(O)(CO)CC3)c(F)cc2c1=O` [Example 198, 1-(3,5-Difluoropyridin-2-yl)-6-fluoro-N-(1,1,1,3,3,3-hexafluoropropan-2-yl)-7-[4-hydroxy-4-(hydroxymethyl)piperidin-1-yl]-4-oxo-1,4-dihydro-1,8-naphthyridine-3-carboxamide] had a concentration giving a half-maximal response (EC50) of 33 nM and an Emax of 100%.

As to `CC[C@H](NC(=O)c1cn(-c2c(F)cc(F)cc2Cl)c2nc(N3C[C@@H](O)[C@H](O)C3)c(F)cc2c1=O)C(F)(F)F` [Example 40, 1-(2-chloro-4,6-difluorophenyl)-7-[(3R,4R)-3,4-dihydroxypyrrolidin-1-yl]-6-fluoro-4-oxo-N-[(2S)-1,1,1-trifluorobutan-2-yl]-1,4-dihydro-1,8-naphthyridine-3-carboxamide], the 50% effective concentration (EC50) was determined as 2.3 nM and the Emax turned out to be 98%.

`O=C(N[C@@H](C1CC1)C(F)(F)F)c1cn(-c2c(F)cc(F)cc2Cl)c2nc(N3C[C@@H](O)[C@H](O)C3)c(F)cc2c1=O` (single isomer, unassigned) [Example 52] returned a concentration giving a half-maximal response (EC50) of 1.3 nM and an Efficiency of 83%.

On to `CC(C)(NC(=O)c1cn(-c2ncc(F)cc2F)c2nc(N3CC[C@H](O)C3)c(F)cc2c1=O)C(F)(F)F` [Example 154, 1-(3,5-Difluoropyridin-2-yl)-6-fluoro-7-[(3S)-3-hydroxypyrrolidin-1-yl]-4-oxo-N-(1,1,1-tri-fluoro-2-methylpropan-2-yl)-1,4-dihydro-1,8-naphthyridine-3-carboxamide], for which the EC50 was determined as 97 nM and the Emax worked out at 100%.

Take `CC(C)(C)C(NC(=O)c1cn(-c2c(F)cc(F)cc2F)c2nc(N3CC4(COC4)C3)c(F)cc2c1=O)C(F)(F)C(F)(F)F` (single isomer, unassigned) [Example 215, 6-Fluoro-7-(2-oxa-6-azaspiro[3.3]hept-6-yl)-4-oxo-N-[1,1,1,2,2-pentafluoro-4,4-dimethylpentan-3-yl]-1-(2,4,6-trifluorophenyl)-1,4-dihydro-1,8-naphthyridine-3-carboxamide]: the concentration giving a half-maximal response (EC50) turned out to be 8.6 nM and the Efficiency is listed as 100%.

In the case of `CC(C)[C@H](C)NC(=O)c1cn(-c2c(F)cc(F)cc2F)c2nc(N3CC[C@H](O)C3)c(F)cc2c1=O` [Example 119, 6-Fluoro-7-[(3S)-3-hydroxypyrrolidin-1-yl]-N-[(2S)-3-methylbutan-2-yl]-4-oxo-1-(2,4,6-tri-fluorophenyl)-1,4-dihydro-1,8-naphthyridine-3-carboxamide], the EC50 came to 8.7 nM and the Emax was determined as 100%.

`CN(CCO)c1nc2c(cc1F)c(=O)c(C(=O)N[C@@H](C1CC1)C(F)(F)F)cn2-c1c(F)cc(F)cc1F` [Example 55, N-[(1S)-1-Cyclopropyl-2,2,2-trifluoroethyl]-6-fluoro-7-[(2-hydroxyethyl)(methyl)amino]-4-oxo-1-(2,4,6-trifluorophenyl)-1,4-dihydro-1,8-naphthyridine-3-carboxamide] displayed a concentration for a half-maximal effect (EC50) of 25 nM and an Emax of 96%.

`CC(C)C(NC(=O)c1cn(-c2c(F)cc(F)cc2F)c2nc(N3C[C@@H](O)[C@@H](O)C3)c(F)cc2c1=O)C(F)(F)F` (single isomer, unassigned) [Example 138] registered an EC50 of 7.6 nM and an Efficiency of 84%.

`CC[C@H](NC(=O)c1cn(-c2c(F)cc(F)cc2F)c2nc(N3C[C@@H](O)[C@H](O)C3)c(Cl)cc2c1=O)C(F)(F)F` [Example 38, 6-chloro-7-[(3R,4R)-3,4-dihydroxypyrrolidin-1-yl]-4-oxo-N-[(2S)-1,1,1-trifluorobutan-2-yl]-1-(2,4,6-trifluorophenyl)-1,4-dihydro-1,8-naphthyridine-3-carboxamide] had a 50% effective concentration (EC50) of 10.1 nM and a maximum response (Emax) of 100%.

In turn, `CC(NC(=O)c1cn(-c2c(F)cc(F)cc2F)c2nc(N3CC[C@H](O)C3)c(Br)cc2c1=O)C(F)(F)C(F)(F)F` (single isomer, unassigned) [Example 232] displayed a half-maximal effective concentration (EC50) of 7 nM and an Emax of 100%.

On to `C[C@@H](NC(=O)c1cn(-c2c(F)cc(F)cc2Cl)c2nc(N3C[C@@H](O)[C@H](O)C3)c(F)cc2c1=O)C(F)(F)F` [Example 227, 1-(2-Chloro-4,6-difluorophenyl)-7-[(3R,4R)-3,4-dihydroxypyrrolidin-1-yl]-6-fluoro-4-oxo-N-[(2R)-1,1,1-trifluoropropan-2-yl]-1,4-dihydro-1,8-naphthyridine-3-carboxamide], for which a half-maximal response (EC50) required 11 nM and the maximal effect (Emax) amounted to 94%.

The compound `CC(C)C(NC(=O)c1cn(-c2c(F)cc(F)cc2F)c2nc(N3C[C@@H](O)[C@@H](O)C3)c(F)cc2c1=O)C(C)C` [Example 103, 7-[(3R,4S)-3,4-Dihydroxypyrrolidin-1-yl]-N-(2,4-dimethylpentan-3-yl)-6-fluoro-4-oxo-1-(2,4,6-trifluorophenyl)-1,4-dihydro-1,8-naphthyridine-3-carboxamide] had a 50% effective concentration (EC50) of 8.1 nM and a maximum response (Emax) of 100%.

For `CCC(NC(=O)c1cn(-c2c(F)cc(F)cc2F)c2nc(N3C[C@@H](O)[C@H](O)C3)c(Br)cc2c1=O)C(F)(F)C(F)(F)F` (mixture of isomers) [Example 157, 6-Bromo-7-[(3R,4R)-3,4-dihydroxypyrrolidin-1-yl]-4-oxo-N-[1,1,1,2,2-pentafluoropentan-3-yl]-1-(2,4,6-trifluorophenyl)-1,4-dihydro-1,8-naphthyridine-3-carboxamide], the concentration for a half-maximal effect (EC50) turned out to be 2.6 nM and the Emax stood at 100%.

Take `CC(C)(NC(=O)c1cn(-c2c(F)cc(F)cc2F)c2nc(N3CC4(COC4)C3)c(F)cc2c1=O)C(F)(F)C(F)(F)F` (racemic) [Example 163, 6-Fluoro-7-(2-oxa-6-azaspiro[3.3]hept-6-yl)-4-oxo-N-(3,3,4,4,4-pentafluoro-2-methylbutan-2-yl)-1-(2,4,6-trifluorophenyl)-1,4-dihydro-1,8-naphthyridine-3-carboxamide]: the response was half-maximal at 25 nM (EC50) and the Emax came to 93%.

`CC(C)(CC(F)(F)F)NC(=O)c1cn(-c2c(F)cc(F)cc2F)c2nc(N3C[C@@H](O)[C@@H](O)C3)c(F)cc2c1=O` [Example 91, 7-[(3R,4S)-3,4-Dihydroxypyrrolidin-1-yl]-6-fluoro-4-oxo-N-(4,4,4-trifluoro-2-methylbutan-2-yl)-1-(2,4,6-trifluorophenyl)-1,4-dihydro-1,8-naphthyridine-3-carboxamide] yielded an EC50 of 6.5 nM and an Emax of 100%.

Turning to `COC(=O)C12CCC(NC(=O)c3cn(-c4c(F)cc(F)cc4F)c4nc(N5C[C@@H](O)[C@H](O)C5)c(F)cc4c3=O)(CC1)C2` [Example 86, Methyl 4-[({7-[(3R,4R)-3,4-dihydroxypyrrolidin-1-yl]-6-fluoro-4-oxo-1-(2,4,6-trifluoro-phenyl)-1,4-dihydro-1,8-naphthyridin-3-yl}carbonyl)amino]bicyclo[2.2.1]heptane-1-carboxylate], the EC50 was found to be 14 nM and the Emax turned out to be 95%.
